Assay results: ChEMBL document CHEMBL3991601, “The target landscape of clinical kinase drugs” (Science, 2017)
The source made the active and inactive calls. Cut-off read from the data, not from the text of the source, for most assays here: actives have a measured Kd and inactives only a lower limit.

Columns and labels:
Activin receptor type-2B = Activin receptor type-2B (Homo sapiens, UniProt Q13705)
[1] = target: T1, Adenine phosphoribosyltransferase (Homo sapiens, UniProt P07741)
T1 sequence (P07741 whole entry): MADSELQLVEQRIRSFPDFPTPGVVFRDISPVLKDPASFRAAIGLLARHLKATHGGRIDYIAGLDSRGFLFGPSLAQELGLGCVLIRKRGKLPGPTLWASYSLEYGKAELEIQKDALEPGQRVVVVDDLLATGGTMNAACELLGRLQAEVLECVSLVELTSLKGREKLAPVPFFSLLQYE

Aurora kinase B = Aurora kinase B (Homo sapiens, UniProt Q96GD4)
GTP-binding protein 4 = GTP-binding protein 4 (Homo sapiens, UniProt Q9BZE4)
[2] = target: Tyrosine-protein kinase HCK (Homo sapiens, UniProt P08631)
LIM domain kinase 1 = LIM domain kinase 1 (Homo sapiens, UniProt P53667)
LIM domain kinase 2 = LIM domain kinase 2 (Homo sapiens, UniProt P53671)
[3] = target: T2, Mitogen-activated protein kinase kinase kinase kinase 3 (Homo sapiens, UniProt Q8IVH8)
T2 sequence (Q8IVH8 whole entry): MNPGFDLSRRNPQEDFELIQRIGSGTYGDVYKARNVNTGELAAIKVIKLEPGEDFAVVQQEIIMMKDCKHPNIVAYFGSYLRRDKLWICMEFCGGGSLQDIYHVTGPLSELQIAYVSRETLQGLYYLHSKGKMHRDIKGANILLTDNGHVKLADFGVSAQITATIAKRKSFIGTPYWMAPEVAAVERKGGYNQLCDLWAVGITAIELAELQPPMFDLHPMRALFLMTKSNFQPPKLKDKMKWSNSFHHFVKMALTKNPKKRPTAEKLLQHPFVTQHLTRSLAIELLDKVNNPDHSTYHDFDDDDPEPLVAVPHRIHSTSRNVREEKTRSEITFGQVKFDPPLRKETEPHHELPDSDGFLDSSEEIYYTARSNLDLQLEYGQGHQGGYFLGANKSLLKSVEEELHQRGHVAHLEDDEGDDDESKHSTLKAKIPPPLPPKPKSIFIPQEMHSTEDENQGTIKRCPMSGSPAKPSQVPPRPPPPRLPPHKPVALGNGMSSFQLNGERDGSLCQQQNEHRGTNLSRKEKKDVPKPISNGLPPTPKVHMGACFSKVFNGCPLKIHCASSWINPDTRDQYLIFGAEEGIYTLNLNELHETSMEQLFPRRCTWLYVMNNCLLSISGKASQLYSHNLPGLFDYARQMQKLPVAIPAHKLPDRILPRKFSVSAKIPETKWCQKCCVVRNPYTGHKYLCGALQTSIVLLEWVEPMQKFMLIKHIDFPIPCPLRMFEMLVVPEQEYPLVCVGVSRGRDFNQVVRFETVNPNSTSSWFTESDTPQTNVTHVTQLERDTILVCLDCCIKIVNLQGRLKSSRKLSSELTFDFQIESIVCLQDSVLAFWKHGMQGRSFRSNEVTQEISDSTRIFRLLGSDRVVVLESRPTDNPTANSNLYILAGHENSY

[4] = target: Mitogen-activated protein kinase 11 (Homo sapiens, UniProt Q15759)
[5] = target: Mitogen-activated protein kinase 7 (Homo sapiens, UniProt Q13164)
[6] = target: Mitogen-activated protein kinase 8 (Homo sapiens, UniProt P45983)
[7] = target: 5'-AMP-activated protein kinase catalytic subunit alpha-1 (Homo sapiens, UniProt Q13131)
[8] = target: Protein-tyrosine kinase 6 (Homo sapiens, UniProt Q13882)
[9] = target: Rho-associated protein kinase 1 (Homo sapiens, UniProt Q13464)
[10] = target: T3, Succinate--CoA ligase [ADP-forming] subunit beta, mitochondrial (Homo sapiens, UniProt Q9P2R7)
T3 sequence (Q9P2R7 whole entry): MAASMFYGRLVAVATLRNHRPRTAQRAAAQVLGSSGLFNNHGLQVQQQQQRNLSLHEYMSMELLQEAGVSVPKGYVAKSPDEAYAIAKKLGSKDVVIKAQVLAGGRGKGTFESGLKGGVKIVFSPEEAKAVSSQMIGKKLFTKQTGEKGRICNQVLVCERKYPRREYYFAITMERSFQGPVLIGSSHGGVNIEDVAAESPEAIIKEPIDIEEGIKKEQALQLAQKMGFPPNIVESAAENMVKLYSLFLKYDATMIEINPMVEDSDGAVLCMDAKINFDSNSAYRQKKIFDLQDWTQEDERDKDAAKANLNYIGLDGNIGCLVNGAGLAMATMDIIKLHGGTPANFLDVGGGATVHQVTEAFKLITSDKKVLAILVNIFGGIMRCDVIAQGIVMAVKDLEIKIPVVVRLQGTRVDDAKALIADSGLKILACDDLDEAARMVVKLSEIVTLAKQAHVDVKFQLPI

[11] = target: T4, Phosphatidylinositol 5-phosphate 4-kinase type-2 alpha (Homo sapiens, UniProt P48426)
T4 sequence (P48426 whole entry): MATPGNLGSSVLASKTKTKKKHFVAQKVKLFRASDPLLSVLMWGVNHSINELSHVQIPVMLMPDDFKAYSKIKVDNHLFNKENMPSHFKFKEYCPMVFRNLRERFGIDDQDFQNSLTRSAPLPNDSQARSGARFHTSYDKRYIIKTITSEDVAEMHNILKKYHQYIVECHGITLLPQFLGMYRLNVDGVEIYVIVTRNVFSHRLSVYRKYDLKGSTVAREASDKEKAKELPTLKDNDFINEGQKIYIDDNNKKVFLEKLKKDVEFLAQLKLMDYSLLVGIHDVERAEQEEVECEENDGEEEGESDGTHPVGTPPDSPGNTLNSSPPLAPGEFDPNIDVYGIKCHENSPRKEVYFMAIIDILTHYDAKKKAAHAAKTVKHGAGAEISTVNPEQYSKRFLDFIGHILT
Note: in the data inactive means no Kd found up to 30 µM.

Mitogen-activated protein kinase 11, sequence (Q15759 whole entry): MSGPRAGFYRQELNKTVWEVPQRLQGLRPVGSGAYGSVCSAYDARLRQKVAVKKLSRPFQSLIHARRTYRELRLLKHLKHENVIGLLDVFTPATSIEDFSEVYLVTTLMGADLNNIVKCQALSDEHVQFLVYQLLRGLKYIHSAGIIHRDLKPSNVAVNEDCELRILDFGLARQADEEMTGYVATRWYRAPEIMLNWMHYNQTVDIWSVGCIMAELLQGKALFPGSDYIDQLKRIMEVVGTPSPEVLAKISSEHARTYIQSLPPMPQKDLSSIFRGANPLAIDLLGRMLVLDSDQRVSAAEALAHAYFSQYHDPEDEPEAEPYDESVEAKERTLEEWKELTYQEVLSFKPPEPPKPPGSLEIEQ
5'-AMP-activated protein kinase catalytic subunit alpha-1, sequence (Q13131 whole entry): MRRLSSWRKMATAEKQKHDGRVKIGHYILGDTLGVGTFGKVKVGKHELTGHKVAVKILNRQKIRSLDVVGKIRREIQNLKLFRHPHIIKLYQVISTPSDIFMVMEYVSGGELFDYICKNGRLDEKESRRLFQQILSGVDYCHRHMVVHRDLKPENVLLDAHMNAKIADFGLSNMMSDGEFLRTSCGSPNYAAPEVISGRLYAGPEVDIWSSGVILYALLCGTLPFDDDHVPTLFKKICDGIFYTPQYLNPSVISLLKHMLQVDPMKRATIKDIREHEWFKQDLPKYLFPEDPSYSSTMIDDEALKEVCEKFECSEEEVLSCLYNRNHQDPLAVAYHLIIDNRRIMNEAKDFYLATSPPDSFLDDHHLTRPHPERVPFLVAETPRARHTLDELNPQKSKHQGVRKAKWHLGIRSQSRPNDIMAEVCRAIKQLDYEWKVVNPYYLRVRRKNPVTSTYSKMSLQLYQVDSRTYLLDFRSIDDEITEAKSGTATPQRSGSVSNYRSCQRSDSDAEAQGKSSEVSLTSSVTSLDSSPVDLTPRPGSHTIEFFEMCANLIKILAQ
Activin receptor type-2B, sequence (Q13705 whole entry): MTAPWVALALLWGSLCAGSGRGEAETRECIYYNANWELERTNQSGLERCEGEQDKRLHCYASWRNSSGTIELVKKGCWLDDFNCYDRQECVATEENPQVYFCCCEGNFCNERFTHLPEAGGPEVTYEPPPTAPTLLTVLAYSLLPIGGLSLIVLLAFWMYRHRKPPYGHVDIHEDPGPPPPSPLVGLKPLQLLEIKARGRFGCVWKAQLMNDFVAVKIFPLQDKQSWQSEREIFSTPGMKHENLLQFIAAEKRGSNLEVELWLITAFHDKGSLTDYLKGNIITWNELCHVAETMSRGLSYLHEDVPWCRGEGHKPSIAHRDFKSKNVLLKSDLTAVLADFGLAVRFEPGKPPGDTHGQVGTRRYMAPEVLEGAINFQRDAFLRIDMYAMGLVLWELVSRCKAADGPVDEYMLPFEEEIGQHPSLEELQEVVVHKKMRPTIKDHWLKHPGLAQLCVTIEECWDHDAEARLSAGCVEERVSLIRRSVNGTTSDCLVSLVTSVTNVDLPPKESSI
LIM domain kinase 2, sequence (P53671 whole entry, the tested form may be a part): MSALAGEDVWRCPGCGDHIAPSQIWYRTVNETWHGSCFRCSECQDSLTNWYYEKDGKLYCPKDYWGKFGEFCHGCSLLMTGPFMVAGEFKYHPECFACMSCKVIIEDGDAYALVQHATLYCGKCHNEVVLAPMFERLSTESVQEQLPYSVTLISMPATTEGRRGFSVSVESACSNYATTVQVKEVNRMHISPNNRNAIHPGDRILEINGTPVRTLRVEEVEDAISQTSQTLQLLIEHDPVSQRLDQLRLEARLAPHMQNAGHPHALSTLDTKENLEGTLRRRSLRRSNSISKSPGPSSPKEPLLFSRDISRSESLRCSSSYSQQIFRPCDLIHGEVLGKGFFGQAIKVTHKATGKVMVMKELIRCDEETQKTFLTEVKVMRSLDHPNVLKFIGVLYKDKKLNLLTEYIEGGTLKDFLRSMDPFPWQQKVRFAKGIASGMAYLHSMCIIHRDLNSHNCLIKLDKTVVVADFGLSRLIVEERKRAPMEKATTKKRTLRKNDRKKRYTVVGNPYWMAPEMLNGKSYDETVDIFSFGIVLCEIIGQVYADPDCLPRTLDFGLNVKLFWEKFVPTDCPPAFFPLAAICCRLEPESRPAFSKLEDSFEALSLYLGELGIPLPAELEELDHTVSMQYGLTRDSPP
LIM domain kinase 1, sequence (P53667 whole entry, the tested form may be a part): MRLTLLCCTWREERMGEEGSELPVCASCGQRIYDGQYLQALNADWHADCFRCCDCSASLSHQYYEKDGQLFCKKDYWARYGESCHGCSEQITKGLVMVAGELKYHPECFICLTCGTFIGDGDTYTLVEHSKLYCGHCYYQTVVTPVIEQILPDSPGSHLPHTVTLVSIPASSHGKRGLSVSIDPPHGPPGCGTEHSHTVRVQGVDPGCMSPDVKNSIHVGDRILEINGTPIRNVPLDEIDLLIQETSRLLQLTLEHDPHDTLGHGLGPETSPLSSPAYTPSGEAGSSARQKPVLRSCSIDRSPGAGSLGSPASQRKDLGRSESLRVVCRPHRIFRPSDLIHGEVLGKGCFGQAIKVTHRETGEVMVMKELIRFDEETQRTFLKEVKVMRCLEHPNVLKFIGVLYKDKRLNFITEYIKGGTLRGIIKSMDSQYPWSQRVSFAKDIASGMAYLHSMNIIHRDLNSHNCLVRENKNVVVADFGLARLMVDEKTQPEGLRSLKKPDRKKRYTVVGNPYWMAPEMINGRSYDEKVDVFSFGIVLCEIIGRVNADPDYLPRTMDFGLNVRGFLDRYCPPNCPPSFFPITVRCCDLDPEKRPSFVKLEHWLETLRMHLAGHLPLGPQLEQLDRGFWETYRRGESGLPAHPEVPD
Tyrosine-protein kinase HCK, sequence (P08631 whole entry, the tested form may be a part): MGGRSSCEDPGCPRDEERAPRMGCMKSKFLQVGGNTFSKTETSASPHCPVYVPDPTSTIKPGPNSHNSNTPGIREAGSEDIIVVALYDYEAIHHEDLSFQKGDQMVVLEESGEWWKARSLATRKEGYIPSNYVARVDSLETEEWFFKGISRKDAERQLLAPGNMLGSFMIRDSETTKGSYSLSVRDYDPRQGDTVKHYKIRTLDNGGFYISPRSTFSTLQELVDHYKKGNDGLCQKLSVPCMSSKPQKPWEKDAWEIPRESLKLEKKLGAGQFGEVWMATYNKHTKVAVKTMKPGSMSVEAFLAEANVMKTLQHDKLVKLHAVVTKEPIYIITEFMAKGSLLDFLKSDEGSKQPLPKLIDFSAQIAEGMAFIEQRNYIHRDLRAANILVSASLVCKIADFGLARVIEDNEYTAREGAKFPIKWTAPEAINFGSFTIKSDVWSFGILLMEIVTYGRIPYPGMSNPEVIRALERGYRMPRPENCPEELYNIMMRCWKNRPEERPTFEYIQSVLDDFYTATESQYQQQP
Rho-associated protein kinase 1, sequence (Q13464 whole entry): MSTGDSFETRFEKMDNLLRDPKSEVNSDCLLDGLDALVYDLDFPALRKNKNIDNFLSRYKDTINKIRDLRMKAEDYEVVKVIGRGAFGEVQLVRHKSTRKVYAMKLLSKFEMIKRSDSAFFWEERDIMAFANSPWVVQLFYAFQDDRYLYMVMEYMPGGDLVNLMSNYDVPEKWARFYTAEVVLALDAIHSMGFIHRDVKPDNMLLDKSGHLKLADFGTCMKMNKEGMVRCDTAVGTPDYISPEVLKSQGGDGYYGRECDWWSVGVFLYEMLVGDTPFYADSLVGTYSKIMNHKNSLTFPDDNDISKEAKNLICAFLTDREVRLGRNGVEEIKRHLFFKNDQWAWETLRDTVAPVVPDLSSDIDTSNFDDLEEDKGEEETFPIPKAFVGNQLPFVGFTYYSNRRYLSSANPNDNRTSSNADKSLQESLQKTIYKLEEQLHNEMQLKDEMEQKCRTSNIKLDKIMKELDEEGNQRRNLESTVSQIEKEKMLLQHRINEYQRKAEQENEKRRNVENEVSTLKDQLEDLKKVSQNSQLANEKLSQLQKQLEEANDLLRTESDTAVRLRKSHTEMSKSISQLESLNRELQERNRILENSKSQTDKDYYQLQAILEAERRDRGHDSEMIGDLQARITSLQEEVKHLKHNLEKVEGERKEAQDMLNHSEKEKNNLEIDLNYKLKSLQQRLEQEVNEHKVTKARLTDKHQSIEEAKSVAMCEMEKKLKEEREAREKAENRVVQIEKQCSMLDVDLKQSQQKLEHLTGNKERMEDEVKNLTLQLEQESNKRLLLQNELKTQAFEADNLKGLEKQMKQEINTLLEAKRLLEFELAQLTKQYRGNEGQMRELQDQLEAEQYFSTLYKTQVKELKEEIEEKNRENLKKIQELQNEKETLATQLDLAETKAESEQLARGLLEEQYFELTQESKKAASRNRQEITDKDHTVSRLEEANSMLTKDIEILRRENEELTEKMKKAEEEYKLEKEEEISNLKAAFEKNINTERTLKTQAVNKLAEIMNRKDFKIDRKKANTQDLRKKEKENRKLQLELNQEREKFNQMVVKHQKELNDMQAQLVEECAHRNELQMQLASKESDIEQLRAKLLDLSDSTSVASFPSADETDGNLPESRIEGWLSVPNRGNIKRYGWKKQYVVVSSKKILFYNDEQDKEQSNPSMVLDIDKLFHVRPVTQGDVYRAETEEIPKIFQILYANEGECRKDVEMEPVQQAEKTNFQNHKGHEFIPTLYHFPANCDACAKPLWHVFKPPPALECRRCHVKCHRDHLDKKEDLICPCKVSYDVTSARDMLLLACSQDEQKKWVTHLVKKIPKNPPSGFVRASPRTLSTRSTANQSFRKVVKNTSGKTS
Protein-tyrosine kinase 6, sequence (Q13882 whole entry): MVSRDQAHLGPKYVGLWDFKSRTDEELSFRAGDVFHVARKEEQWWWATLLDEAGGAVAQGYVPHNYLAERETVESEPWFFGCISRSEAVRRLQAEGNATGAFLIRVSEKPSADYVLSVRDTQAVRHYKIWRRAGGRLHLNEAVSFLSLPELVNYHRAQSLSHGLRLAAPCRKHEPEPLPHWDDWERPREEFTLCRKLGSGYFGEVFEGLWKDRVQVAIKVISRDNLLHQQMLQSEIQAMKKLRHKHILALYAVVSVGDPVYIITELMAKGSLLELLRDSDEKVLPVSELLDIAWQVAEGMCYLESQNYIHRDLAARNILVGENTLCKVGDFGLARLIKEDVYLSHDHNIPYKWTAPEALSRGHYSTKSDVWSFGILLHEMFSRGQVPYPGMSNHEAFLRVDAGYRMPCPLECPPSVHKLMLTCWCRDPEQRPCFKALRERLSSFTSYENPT

Row | Kd (Activin receptor type-2B) | Kd [1] | Kd (Aurora kinase B) | Kd (GTP-binding protein 4) | Kd [2] | Kd (LIM domain kinase 1) | Kd (LIM domain kinase 2) | Kd [3] | Kd [4] | Kd [5] | Kd [6] | Kd [7] | Kd [8] | Kd [9] | Kd [10] | Kd [11] | SMILES
1 | 0.901 µM (active) | > 30 µM (inactive) | > 30 µM (inactive) | > 30 µM (inactive) | > 30 µM (inactive) | 1.85 µM (active) | > 30 µM (inactive) | > 30 µM (inactive) | > 30 µM (inactive) | > 30 µM (inactive) | > 30 µM (inactive) | > 30 µM (inactive) | 2.1 µM (active) | > 30 µM (inactive) | > 30 µM (inactive) | > 30 µM (inactive) | Cc1nc2cc(-c3nn(C(C)C)c4ncnc(N)c34)ccc2o1
2 |  | > 30 µM (inactive) | > 30 µM (inactive) | > 30 µM (inactive) | > 30 µM (inactive) | > 30 µM (inactive) | > 30 µM (inactive) | > 30 µM (inactive) |  | > 30 µM (inactive) | > 30 µM (inactive) | > 30 µM (inactive) | > 30 µM (inactive) | > 30 µM (inactive) | > 30 µM (inactive) |  | Cc1nc(NC(=O)N2CCC[C@H]2C(N)=O)sc1-c1ccnc(C(C)(C)C(F)(F)F)c1 [ALPELISIB]
3 | > 30 µM (inactive) | > 30 µM (inactive) | > 30 µM (inactive) | > 30 µM (inactive) | > 30 µM (inactive) | > 30 µM (inactive) | > 30 µM (inactive) | > 30 µM (inactive) | > 30 µM (inactive) | > 30 µM (inactive) | > 30 µM (inactive) | > 30 µM (inactive) | > 30 µM (inactive) | > 30 µM (inactive) | > 30 µM (inactive) |  | Cc1nc2cc(-n3ncc(C(=O)c4cc5ccccc5[nH]4)c3N)ccc2[nH]1 [FGFR INHIBITOR DEBIO 1347]
4 | > 30 µM (inactive) | > 30 µM (inactive) | > 30 µM (inactive) | > 30 µM (inactive) | > 30 µM (inactive) | > 30 µM (inactive) | > 30 µM (inactive) | > 30 µM (inactive) | > 30 µM (inactive) | > 30 µM (inactive) | > 30 µM (inactive) | > 30 µM (inactive) | > 30 µM (inactive) | > 30 µM (inactive) |  | > 30 µM (inactive) | CO[C@H]1C[C@@H]2CC[C@@H](C)[C@@](O)(O2)C(=O)C(=O)N2CCCC[C@H]2C(=O)O[C@H]([C@H](C)C[C@@H]2CC[C@@H](OP(C)(C)=O)[C@H](OC)C2)CC(=O)[C@H](C)/C=C(\C)[C@@H](O)[C@@H](OC)C(=O)[C@H](C)C[C@H](C)/C=C/C=C/C=C/1C [RIDAFOROLIMUS]

Second part, the molecule before the results:

Row | SMILES | Kd (Activin receptor type-2B) | Kd [1] | Kd (Aurora kinase B) | Kd (GTP-binding protein 4) | Kd [2] | Kd (LIM domain kinase 1) | Kd (LIM domain kinase 2) | Kd [3] | Kd [4] | Kd [5] | Kd [6] | Kd [7] | Kd [8] | Kd [9] | Kd [10] | Kd [11]
5 | C[C@@H](Oc1cc(C(=O)Nc2ccc(C(=O)N3CCN(C)CC3)cc2)nnc1N)c1c(Cl)ccc(F)c1Cl | > 30 µM (inactive) | > 30 µM (inactive) | > 30 µM (inactive) | > 30 µM (inactive) | > 30 µM (inactive) | > 30 µM (inactive) | > 30 µM (inactive) | > 30 µM (inactive) | > 30 µM (inactive) | > 30 µM (inactive) | > 30 µM (inactive) | > 30 µM (inactive) | > 30 µM (inactive) | > 30 µM (inactive) | > 30 µM (inactive) | 
6 | CCNC(=O)C#Cc1ccc2c(c1)NC(=O)/C2=C(\Nc1ccc(CN(C)C)cc1)c1ccccc1 | > 30 µM (inactive) | > 30 µM (inactive) | 0.059 µM (active) |  | 0.9 µM (active) | > 30 µM (inactive) | > 30 µM (inactive) | > 30 µM (inactive) | > 30 µM (inactive) | > 30 µM (inactive) | > 30 µM (inactive) | 3.05 µM (active) | > 30 µM (inactive) | > 30 µM (inactive) | > 30 µM (inactive) | > 30 µM (inactive)
7 | COc1cc([C@@H]2c3cc4c(cc3[C@H](O)[C@H]3COC(=O)[C@@H]23)OCO4)cc(OC)c1OC [AXL-1717] | > 30 µM (inactive) | > 30 µM (inactive) | > 30 µM (inactive) | > 30 µM (inactive) | > 30 µM (inactive) | > 30 µM (inactive) | > 30 µM (inactive) | > 30 µM (inactive) | > 30 µM (inactive) | > 30 µM (inactive) | > 30 µM (inactive) | > 30 µM (inactive) | > 30 µM (inactive) | > 30 µM (inactive) | > 30 µM (inactive) | > 30 µM (inactive)
